Assay results as given in patent US10947242B2, “[1,2,4]triazolo[1,5and#8208;A]pyrimidine compounds as PDE2 inhibitors” (Janssen Pharmaceutica NV, priority 2016, dated 2021).
Read-outs that look alike come from different tables or passages of the source.

How the values were obtained:
PDE2A = molecular target: T1, PDE2A (Rattus norvegicus, UniProt Q01062); test: PDE2 occupancy by test compounds, ex-vivo autoradiography with [3H]B-17a; type: in vivo, Male Wistar rats; details: for receptor occupancy at 10 mg/kg: percentage receptor occupancy, ex-vivo autoradiography, striatum; for ED50: read-out: PDE Occupancy ED50
T1 construct: Twenty μm-thick striatal sections were cut; from tissue; host or cells: rat brain, striatal sections
T1 sequence (Q01062 1-928): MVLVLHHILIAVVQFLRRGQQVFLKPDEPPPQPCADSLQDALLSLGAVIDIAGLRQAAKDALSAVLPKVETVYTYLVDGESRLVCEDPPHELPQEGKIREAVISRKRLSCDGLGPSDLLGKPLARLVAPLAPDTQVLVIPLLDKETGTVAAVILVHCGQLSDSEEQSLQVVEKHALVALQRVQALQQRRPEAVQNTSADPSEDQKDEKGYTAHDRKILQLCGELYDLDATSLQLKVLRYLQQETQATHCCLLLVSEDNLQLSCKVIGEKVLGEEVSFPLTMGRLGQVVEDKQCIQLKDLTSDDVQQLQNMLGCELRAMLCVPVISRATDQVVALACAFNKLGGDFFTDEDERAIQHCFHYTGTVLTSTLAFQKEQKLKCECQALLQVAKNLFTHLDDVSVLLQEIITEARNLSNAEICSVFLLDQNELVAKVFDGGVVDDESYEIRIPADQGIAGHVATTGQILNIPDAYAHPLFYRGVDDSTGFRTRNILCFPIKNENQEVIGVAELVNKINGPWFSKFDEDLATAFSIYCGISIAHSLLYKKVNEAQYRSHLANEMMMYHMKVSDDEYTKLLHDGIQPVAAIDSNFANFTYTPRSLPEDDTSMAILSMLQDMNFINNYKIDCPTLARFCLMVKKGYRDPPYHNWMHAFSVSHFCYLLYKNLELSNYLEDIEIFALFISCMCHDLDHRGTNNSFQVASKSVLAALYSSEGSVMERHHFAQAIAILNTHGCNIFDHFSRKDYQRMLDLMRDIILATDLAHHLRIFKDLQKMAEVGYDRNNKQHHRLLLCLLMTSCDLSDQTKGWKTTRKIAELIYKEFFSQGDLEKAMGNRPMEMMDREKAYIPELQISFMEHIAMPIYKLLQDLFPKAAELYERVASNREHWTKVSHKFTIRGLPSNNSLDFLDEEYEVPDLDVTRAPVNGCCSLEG

[1] = molecular target: T2, Human recombinant PDE3A (hPDE3A) (Homo sapiens, UniProt Q14432); test: In vitro assay PDE3A (SPA, 3H-cAMP hydrolysis); type: biochemical; details: for IC50: hPDE3B pIC50; for Emax: read-out: hPDE3B Emax, read-out: Emax;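 for Emax: the method names PDE3A and the table heading PDE3B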
T2 construct: purchased Scottish Biomedical; host or cells: Sf9 insect cells
T2 sequence (Q14432 whole entry): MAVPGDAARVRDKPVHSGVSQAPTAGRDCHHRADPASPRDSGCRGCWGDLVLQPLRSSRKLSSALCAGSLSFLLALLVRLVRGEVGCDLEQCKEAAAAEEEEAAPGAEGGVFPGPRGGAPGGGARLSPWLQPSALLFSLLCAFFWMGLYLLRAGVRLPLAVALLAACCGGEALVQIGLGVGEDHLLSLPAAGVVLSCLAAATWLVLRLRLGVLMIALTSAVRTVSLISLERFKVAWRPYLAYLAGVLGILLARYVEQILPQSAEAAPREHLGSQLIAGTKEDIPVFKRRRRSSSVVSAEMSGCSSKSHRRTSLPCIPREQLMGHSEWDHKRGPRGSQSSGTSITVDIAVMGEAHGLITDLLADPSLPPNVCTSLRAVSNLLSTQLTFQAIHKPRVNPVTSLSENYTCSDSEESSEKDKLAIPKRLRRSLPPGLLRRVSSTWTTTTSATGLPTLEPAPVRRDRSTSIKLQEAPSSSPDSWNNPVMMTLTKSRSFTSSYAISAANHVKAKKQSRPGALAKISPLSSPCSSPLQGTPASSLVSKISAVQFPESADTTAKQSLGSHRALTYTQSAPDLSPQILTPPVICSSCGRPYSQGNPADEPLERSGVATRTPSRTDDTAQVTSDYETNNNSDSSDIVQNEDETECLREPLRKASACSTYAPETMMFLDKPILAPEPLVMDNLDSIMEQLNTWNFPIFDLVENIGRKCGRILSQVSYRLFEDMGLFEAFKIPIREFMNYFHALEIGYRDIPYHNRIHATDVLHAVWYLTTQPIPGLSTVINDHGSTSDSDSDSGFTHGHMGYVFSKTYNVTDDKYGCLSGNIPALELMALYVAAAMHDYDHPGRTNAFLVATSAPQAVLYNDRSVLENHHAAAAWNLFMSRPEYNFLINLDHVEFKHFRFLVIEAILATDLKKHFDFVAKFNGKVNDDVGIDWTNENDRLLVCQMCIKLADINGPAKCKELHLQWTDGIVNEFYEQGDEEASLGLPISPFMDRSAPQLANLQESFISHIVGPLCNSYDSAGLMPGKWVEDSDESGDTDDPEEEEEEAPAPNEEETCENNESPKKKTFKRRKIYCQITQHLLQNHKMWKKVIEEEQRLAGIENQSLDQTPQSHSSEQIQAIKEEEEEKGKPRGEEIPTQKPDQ
Summary of the method: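 Human PDE3A, cloned from brain, as partially purified Sf9 lysate. Substrate 0.4 μM cAMP plus [3H]-cAMP (2.4 μCi/ml final) in 50 mM Tris pH 7.8, 8.3 mM MgCl2, 1.7 mM EGTA, 60 min at room temperature, 1% DMSO final. Hydrolysis read by SPA scintillation counting against no-enzyme blanks and DMSO controls.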

[2] = molecular target: T3, Human recombinant PDE2A (hPDE2A) (Homo sapiens, UniProt O00408); test: In vitro assay PDE2A (SPA, 3H-cGMP hydrolysis); type: biochemical; details: for Emax: read-out: hPDE2A Emax
T3 construct: His tag (inferred from metal chelate purification); made in house; host or cells: Sf9 insect cells (baculovirus)
T3 sequence (O00408 whole entry): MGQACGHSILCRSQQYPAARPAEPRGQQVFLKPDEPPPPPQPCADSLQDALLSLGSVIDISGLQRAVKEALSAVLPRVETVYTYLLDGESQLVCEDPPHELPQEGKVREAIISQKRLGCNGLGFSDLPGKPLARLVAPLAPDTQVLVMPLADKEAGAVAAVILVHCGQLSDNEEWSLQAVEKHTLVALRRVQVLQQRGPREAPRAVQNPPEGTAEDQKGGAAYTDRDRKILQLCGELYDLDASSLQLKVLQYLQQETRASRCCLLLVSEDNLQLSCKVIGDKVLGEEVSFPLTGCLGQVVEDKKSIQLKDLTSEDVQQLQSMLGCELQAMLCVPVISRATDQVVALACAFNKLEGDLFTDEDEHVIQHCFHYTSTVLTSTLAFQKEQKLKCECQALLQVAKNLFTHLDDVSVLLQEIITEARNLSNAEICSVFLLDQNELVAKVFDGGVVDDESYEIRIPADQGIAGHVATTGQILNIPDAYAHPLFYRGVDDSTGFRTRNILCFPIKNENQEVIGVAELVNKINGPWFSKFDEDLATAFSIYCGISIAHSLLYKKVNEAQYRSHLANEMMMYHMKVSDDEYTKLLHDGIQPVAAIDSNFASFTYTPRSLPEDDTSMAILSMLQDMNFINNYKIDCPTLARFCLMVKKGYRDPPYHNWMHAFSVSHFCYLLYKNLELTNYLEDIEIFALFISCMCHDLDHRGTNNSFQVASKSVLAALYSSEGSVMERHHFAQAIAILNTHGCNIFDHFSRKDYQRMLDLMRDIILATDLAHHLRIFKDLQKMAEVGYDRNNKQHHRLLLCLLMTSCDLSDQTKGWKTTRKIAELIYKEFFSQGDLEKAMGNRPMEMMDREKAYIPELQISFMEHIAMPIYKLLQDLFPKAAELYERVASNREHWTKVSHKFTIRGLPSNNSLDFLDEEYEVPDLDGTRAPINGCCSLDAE

[3] = molecular target: T4, Human recombinant PDE10A (hPDE10A) (Homo sapiens, UniProt Q9Y233); test: In vitro assay PDE10A, human clone (SPA, 3H-cAMP hydrolysis); type: biochemical
T4 construct: His tag (inferred from metal chelate purification); made in house; host or cells: Sf9 insect cells (baculovirus)
T4 sequence (Q9Y233 267-1055): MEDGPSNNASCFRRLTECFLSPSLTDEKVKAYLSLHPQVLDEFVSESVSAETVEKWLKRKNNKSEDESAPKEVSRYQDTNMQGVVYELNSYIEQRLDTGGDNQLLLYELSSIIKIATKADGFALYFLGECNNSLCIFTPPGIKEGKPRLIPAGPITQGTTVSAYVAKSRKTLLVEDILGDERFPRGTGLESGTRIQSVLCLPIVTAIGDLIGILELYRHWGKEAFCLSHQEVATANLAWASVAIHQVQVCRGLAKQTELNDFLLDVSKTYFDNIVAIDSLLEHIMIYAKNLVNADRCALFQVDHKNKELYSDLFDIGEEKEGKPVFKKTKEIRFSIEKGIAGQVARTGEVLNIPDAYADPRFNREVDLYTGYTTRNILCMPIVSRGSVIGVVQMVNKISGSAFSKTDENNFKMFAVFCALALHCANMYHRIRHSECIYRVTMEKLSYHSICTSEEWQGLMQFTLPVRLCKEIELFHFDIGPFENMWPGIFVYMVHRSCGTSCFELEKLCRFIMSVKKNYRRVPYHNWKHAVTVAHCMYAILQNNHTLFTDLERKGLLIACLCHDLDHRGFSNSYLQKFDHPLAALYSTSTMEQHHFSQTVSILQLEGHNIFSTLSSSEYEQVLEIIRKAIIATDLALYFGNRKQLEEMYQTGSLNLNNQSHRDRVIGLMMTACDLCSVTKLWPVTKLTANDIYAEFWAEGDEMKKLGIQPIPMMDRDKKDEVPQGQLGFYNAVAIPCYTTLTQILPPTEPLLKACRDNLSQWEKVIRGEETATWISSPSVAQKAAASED
Summary of the method: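 Human recombinant PDE10A was expressed in Sf9 cells via baculovirus and incubated with compound in 50 mM Tris pH 7.8, 8.3 mM MgCl2, 1.7 mM EGTA. Substrate was 60 nM cAMP plus 0.008 μCi 3H-cAMP for 60 min at room temperature, read by SPA scintillation counting. Controls used 1% DMSO, and blanks omitted enzyme.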

[4] = human recombinant PDE2A, 10 μM cGMP substrate, read-out: hPDE2A pIC50 (converted)
[5] = read-out: hPDE2A pIC50 (converted)
[6] = human clone (h), default, read-out: hPDE10A2 Emax
[7] = human clone (h), default, read-out: hPDE10A2 pIC50 (converted)
[8] = human clone by default (no (r) mark), read-out: hPDE10A2 or rPDE10A2 Emax
[9] = human clone by default (no (r) mark), read-out: hPDE10A2 or rPDE10A2 pIC50 (converted)

Structure (SMILES)	receptor occupancy at 10 mg/kg (PDE2A; sc, route SC (subcutaneous))	IC50 ([1]; read-out: pIC50 (converted))	Emax [1]	IC50 [2, 4]	Emax ([2]; human recombinant PDE2A)	Emax [2]	IC50 [2, 5]	Emax [3, 6]	IC50 [3, 7]	receptor occupancy at 10 mg/kg (PDE2A; po, route PO (oral))	ED50 (PDE2A; route PO (oral), drug dose producing 50% receptor occupancy)	Emax [3, 8]	IC50 [3, 9]	receptor occupancy at 10 mg/kg (PDE2A; route PO (oral))	IC50 [1]	IC50 ([2]; hPDE2A pIC50)	IC50 ([3]; hPDE10A2 or rPDE10A2 pIC50, human clone by default (no (r) mark))	receptor occupancy at 10 mg/kg (PDE2A; route SC (subcutaneous))	ED50 (PDE2A; po)	IC50 ([2]; hPDE2A pIC50, human recombinant PDE2A, 10 μM cGMP substrate)
C[C@@H]1CCN(C(=O)c2ccn3cccc3c2)C[C@H]1c1cc(C(F)F)nc2ncnn12 [Compound 90]	73%	0.214 µM	98%	0.355 nM	101%	101%	0.355 nM	102%	19.5 nM	–	–	–	–	–	–	–	–	–	–	–
Cc1nocc1C(=O)N1CC[C@@H](C)[C@H](c2cc(C(F)F)nc3ncnn23)C1 [Compound 184]	–	> 10 µM	17%	28.2 nM	100%	100%	28.2 nM	75%	2750 nM	-2%	–	–	–	–	–	–	–	–	–	–
C[C@@H]1CCN(C(=O)c2cc(C3CC3)ncc2F)C[C@H]1c1cc(C(F)F)nc2ncnn12 [Compound 269]	–	3.72 µM	78%	–	–	101%	0.708 nM	93%	692 nM	22%	24.2 mg/kg	93%	692 nM	–	–	–	–	–	–	–
Cc1cc(C(=O)N2CC[C@@H](C)[C@H](c3cc(C(F)F)nc4ncnn34)C2)c(C(F)(F)F)cn1 [Compound 41]	–	> 10 µM	17%	13.8 nM	99%	99%	13.8 nM	72%	4170 nM	8%	–	–	–	–	–	–	–	–	–	–
O=C(c1ccc2ccccc2n1)N1[C@H]2CC[C@H](c3cc(C(F)F)nc4ncnn34)[C@@H]1CC2 [Compound 308]	–	–	72%	–	–	98%	–	–	–	–	–	66%	–	18%	4.57 µM	17.4 nM	6760 nM	–	–	–
Cc1cc(C(=O)N2[C@H]3CC[C@H](c4cc(C(F)F)nc5ncnn45)[C@@H]2CC3)cc(C(F)F)n1 [Compound 294]	–	> 10 µM	14%	–	–	99%	10.7 nM	–	–	–	–	81%	2090 nM	17%	–	–	–	–	–	–
Cc1cc(C(=O)N2CC[C@@H](C)[C@](F)(c3cc(C(F)F)nc4ncnn34)C2)cc(C)n1 [Compound 82]	–	> 10 µM	9%	33.9 nM	101%	101%	33.9 nM	18%	> 10000 nM	28%	–	–	–	–	–	–	–	–	–	–
Cc1cc(C(=O)N2C3CCC2[C@@H](c2cc(C(F)F)nc4ncnn24)CC3)cc(C2CC2)n1 (stereo partly drawn) [Compound 28]	–	> 10 µM	17%	0.955 nM	101%	101%	0.955 nM	95%	447 nM	–	–	–	–	–	–	–	–	49%	25 mg/kg	–
Cc1cc(C(=O)N2CC[C@@H](C)[C@H](c3cc(C(F)F)nc4ncnn34)C2)cc(Cl)n1 [Compound 83]	–	7.94 µM	58%	–	–	100%	–	98%	97.7 nM	82%	–	–	–	–	–	0.933 nM	–	–	–	0.933 nM
C[C@@H]1CCN(C(=O)c2noc3ccccc23)C[C@H]1c1cc(C(F)F)nc2ncnn12 [Compound 187]	0%	3.47 µM	74%	17.8 nM	99%	99%	17.8 nM	95%	427 nM	–	–	–	–	–	–	–	–	–	–	–
COc1c(C)cc(C(=O)N2CC[C@@H](C)[C@](F)(c3cc(C(F)F)nc4ncnn34)C2)cc1C [Compound 74]	14%	> 10 µM	30%	30.2 nM	101%	101%	30.2 nM	36%	> 10000 nM	–	–	–	–	–	–	–	–	–	–	–
Cc1ccc(C(=O)N2[C@H]3CC[C@H](c4cc(C(F)F)nc5ncnn45)[C@@H]2CC3)cc1Cl [Compound 369]	–	3.72 µM	72%	–	–	100%	4.9 nM	–	–	–	–	93%	724 nM	9%	–	–	–	–	–	–
COc1cc(C(=O)N2CC[C@@H](C)[C@H](c3cc(C(F)F)nc4ncnn34)C2)nc2ccccc12 [Compound 125]	–	0.589 µM	96%	2.09 nM	100%	100%	2.09 nM	96%	589 nM	-16%	–	–	–	–	–	–	–	–	–	–
Cc1cc(C)cc(C(=O)N2[C@H]3CC[C@H](c4cc(C(F)F)nc5ncnn45)[C@@H]2CC3)c1 [Compound 302]	–	7.94 µM	59%	–	–	101%	6.46 nM	–	–	–	–	93%	891 nM	1%	–	–	–	–	–	–
Cc1cc(C(=O)N2[C@H]3CC[C@H](c4cc(C(F)F)nc5ncnn45)[C@@H]2CC3)cc(C)c1C#N [Compound 299]	–	> 10 µM	40%	–	–	99%	7.76 nM	–	–	–	–	84%	2140 nM	31%	–	–	–	–	–	–
